Laboratory results as given in US7691858B2, “Kinase inhibitors and methods of use thereof” (TargeGen, Inc., priority 2006, dated 2010).
“Also recorded” adds a separate entry of the source.

Key:
histamine-induced edema = assay: Miles assay, histamine as agonist; format: in vivo, Sprague-Dawley rats; settings: rats, Compound I pretreatment (1 mg/kg in FIG. 4)
Procedure: Sprague-Dawley rats were first injected IV with vehicle alone or test agent, followed by IV injection of Evans blue dye, followed by intradermal injections of saline and VEGF (200 ng/injection site) along both shaved flanks. […] The ability of test agents to influence edema induced by agonists other than VEGF was also tested. Compounds cited in this application inhibited edema formation induced using histamine as an agonist, for example, as shown below. The ability of test agent to influence vascular edema was tested as above, except that the ability to block edema was tested using either VEGF or histamine as the agonist (200 ng and 10 μg/injection site, respectively).

myocardial infarct = assay: Rodent model of acute myocardial infarct (LAD occlusion/reperfusion); format: in vivo, Sprague-Dawley rats
Procedure: A rodent model of acute myocardial infarct, in which the proximal left anterior descending coronary artery (LAD) is occluded for 60 min followed by reperfusion, was used to determine whether test agents reduced infarct size at 24 hours.
Myocardial infarcts were created in Sprague-Dawley rats (200-300 g body weight) by a 60 min occlusion of the LAD followed by LAD reperfusion. […] At 24 hr post-treatment, the ischemic zone (area at-risk, AAR) was delineated by re-ligation of the LAD followed by IV injection of alkali blue dye, after which hearts were sectioned along the short axis and stained using triphenyltetrazolium chloride to delineate viable from infarcted myocardium. Photographic images were then analyzed using morphometric software to calculate infarct area as a percent of the at-risk area.
Rodent MI model: All animal studies followed current “NIH Guidelines for the Use of Laboratory Animals” and were performed according to IACUC-approved protocols. Sprague-Dawley rats (275-300 g) were anesthetized using inhaled isoflurane after which chest walls were shaved and swabbed with iodine. Animals were then intubated and maintained on 2% isoflurane (delivered in 30% O2/70% N2), with optimal respiratory rate and stroke volumes set by a volume-controlled safety ventilator (Inspira Advanced Safety Ventilator; Harvard Apparatus, Holliston, Mass.). Body temperatures were maintained at 35-37° C. using heating pads and five-lead electrocardiograms established. For each animal, a left thoracotomy was performed at the third intercostal space, the heart was exposed and a suture snare tightened around the LAD at the point it appeared from beneath the left atrium. Ischemia was confirmed from blanching of the left ventricle (LV) as well as changes in ECG patterns. After the desired period of occlusion (60 min in the standard model), the suture snare was loosened to allow complete reperfusion (but retained in place using shallow sutures) and the chest closed in layers. […].
For infarct size determination, LAD occlusion was repeated on each animal 24 hr after the initial occlusion. The ischemic zone (area-at-risk or AAR) was then delineated by i.v. injection of Evans blue dye (5 ml of a 10% saline solution containing 100 U/ml sodium heparin). The heart was explanted, atria and right ventricle trimmed free, and the LV (septal and free walls) frozen at −20° C. to induce rigor. After thawing on ice, the LV was subdivided into six 2 mm thick sections along the short axis using a metal form to guide dissection. Heart sections were stained for 20 min in 37° C. triphenyltetrazolium chloride (TTC, 2% in 0.04 M K2HPO4/0.17 M sucrose) to delineate viable from infarcted myocardium, fixed for 20 min in 10% formalin, then rinsed in saline. For each section, photographs were taken of both anterior and posterior surfaces and these images analyzed (by personnel blinded as to treatment identity) using a morphometric software package (Image Pro Plus; Media Cybernetics, Silver Spring, Md.). The following areas were calculated, based on their differing pixel densities: non-ischemic zone (Evans blue-stained), viable-but-ischemic zone (free of Evans blue but TTC-stained), and infarct-within-ischemic zone (free of both Evans blue and TTC stain). Area values for anterior and posterior views were averaged, and these values used to calculate the following AAR=Viable-but-ischemic Area+Infarct Area Equation 1 Total LV Area=AAR+Non-ischemic Area Equation 2

MAPKAP-K3 = target: T1, MAPKAP-K3 (Homo sapiens, UniProt Q16644); assay: Kinase panel screen; format: biochemical; settings: Compound I and ATP 10 μM
T1 construct: purchased Upstate USA or Invitrogen (commercial screening service)

PKCC, = target: T2, PKCC, (Homo sapiens, UniProt Q05513); assay: Kinase panel screen; format: biochemical; settings: Compound I and ATP 10 μM
T2 construct: purchased Upstate USA or Invitrogen (commercial screening service)

PKCy = target: T3, PKCy (Homo sapiens, UniProt P05129); assay: Kinase panel screen; format: biochemical; settings: Compound I and ATP 10 μM
T3 construct: purchased Upstate USA or Invitrogen (commercial screening service)

ALK = target: T4, ALK (Homo sapiens, UniProt Q9UM73); assay: Kinase panel screen; format: biochemical; settings: Compound I and ATP 10 μM
T4 construct: purchased Upstate USA or Invitrogen (contract screening service)

Plk3 = target: T5, Plk3 (Homo sapiens, UniProt Q9H4B4); assay: Kinase panel screen; format: biochemical; settings: Compound I and ATP 10 μM
T5 construct: purchased Upstate USA or Invitrogen (contract screening service)

Arg = target: T6, Arg (Homo sapiens, UniProt P42684); assay: Kinase panel screen; format: biochemical; settings: Compound I and ATP 10 μM
T6 construct: purchased Upstate USA or Invitrogen (contract screening service)

MKK7b = target: T7, MKK7b (Homo sapiens, UniProt O14733); assay: Kinase panel screen; format: biochemical; settings: Compound I and ATP 10 μM
T7 construct: purchased Upstate USA or Invitrogen (contract screening service)

Axl = target: T8, Axl (Homo sapiens, UniProt P30530); assay: Kinase panel screen; format: biochemical; settings: Compound I and ATP 10 μM
T8 construct: purchased Upstate USA or Invitrogen (contract screening service)

BRK = target: T9, BRK (Homo sapiens, UniProt Q13882); assay: Kinase panel screen; format: biochemical; settings: Compound I and ATP 10 μM
T9 construct: purchased Upstate USA or Invitrogen (commercial screening service)

Hck = target: T10, Hck (Homo sapiens, UniProt P08631); assay: Kinase panel screen; format: biochemical; settings: Compound I and ATP 10 μM
T10 construct: purchased Upstate USA or Invitrogen (commercial screening service)

PAK2 = target: T11, PAK2 (Homo sapiens, UniProt Q13177); assay: Kinase panel screen; format: biochemical; settings: Compound I and ATP 10 μM
T11 construct: purchased Upstate USA or Invitrogen (commercial screening service)

SAPK2a = target: T12, SAPK2a (Homo sapiens, UniProt Q16539); assay: Kinase panel screen; format: biochemical; settings: Compound I and ATP 10 μM
T12 construct: purchased Upstate USA or Invitrogen (commercial screening service)

CDK1 = target: T13, CDK1 (Homo sapiens, UniProt P06493); assay: Kinase panel screen; format: biochemical; settings: Compound I and ATP 10 μM
T13 construct: purchased Upstate USA or Invitrogen (commercial screening service)

TAK1 = target: T14, TAK1 (Homo sapiens, UniProt O43318); assay: Kinase panel screen; format: biochemical; settings: Compound I and ATP 10 μM
T14 construct: purchased Upstate USA or Invitrogen (contract screening service)

PKB 3 = PKB 3 (Homo sapiens, UniProt P31751); assay: Kinase panel screen; format: biochemical; settings: read-out: Percent Control, PKB 3
PKCa = target: T15, PKCa (Homo sapiens, UniProt P17252); assay: Kinase panel screen; format: biochemical; settings: Compound I and ATP 10 μM
T15 construct: purchased Upstate USA or Invitrogen (contract screening service)

PKCpi = target: T16, PKCpi (Homo sapiens, UniProt P05771); assay: Kinase panel screen; format: biochemical; settings: Compound I and ATP 10 μM
T16 construct: purchased Upstate USA or Invitrogen (commercial screening service)

PKCs = target: T17, PKCs (Homo sapiens, UniProt Q02156); assay: Kinase panel screen; format: biochemical; settings: Compound I and ATP 10 μM
T17 construct: purchased Upstate USA or Invitrogen (commercial screening service)
T17 sequence (Q02156 whole entry): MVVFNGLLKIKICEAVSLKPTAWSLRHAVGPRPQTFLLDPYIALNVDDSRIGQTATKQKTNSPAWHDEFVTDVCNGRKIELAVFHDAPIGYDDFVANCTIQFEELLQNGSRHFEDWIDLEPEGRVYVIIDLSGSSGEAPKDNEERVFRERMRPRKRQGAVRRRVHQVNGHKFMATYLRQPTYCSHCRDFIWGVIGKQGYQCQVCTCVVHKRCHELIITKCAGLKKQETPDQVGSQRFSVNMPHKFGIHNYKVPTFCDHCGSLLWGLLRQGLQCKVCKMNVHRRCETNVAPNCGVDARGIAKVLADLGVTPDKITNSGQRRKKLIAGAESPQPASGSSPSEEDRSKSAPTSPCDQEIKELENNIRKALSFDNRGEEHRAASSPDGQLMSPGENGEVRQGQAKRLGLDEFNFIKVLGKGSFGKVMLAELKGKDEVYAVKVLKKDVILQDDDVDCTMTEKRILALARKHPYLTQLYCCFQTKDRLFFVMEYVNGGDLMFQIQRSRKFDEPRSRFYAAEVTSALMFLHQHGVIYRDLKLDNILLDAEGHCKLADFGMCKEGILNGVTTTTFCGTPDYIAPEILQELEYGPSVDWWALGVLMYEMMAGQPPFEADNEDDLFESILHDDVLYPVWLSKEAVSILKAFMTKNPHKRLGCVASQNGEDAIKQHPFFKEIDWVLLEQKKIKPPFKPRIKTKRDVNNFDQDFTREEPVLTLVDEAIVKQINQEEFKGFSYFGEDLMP

T9 sequence (Q13882 whole entry): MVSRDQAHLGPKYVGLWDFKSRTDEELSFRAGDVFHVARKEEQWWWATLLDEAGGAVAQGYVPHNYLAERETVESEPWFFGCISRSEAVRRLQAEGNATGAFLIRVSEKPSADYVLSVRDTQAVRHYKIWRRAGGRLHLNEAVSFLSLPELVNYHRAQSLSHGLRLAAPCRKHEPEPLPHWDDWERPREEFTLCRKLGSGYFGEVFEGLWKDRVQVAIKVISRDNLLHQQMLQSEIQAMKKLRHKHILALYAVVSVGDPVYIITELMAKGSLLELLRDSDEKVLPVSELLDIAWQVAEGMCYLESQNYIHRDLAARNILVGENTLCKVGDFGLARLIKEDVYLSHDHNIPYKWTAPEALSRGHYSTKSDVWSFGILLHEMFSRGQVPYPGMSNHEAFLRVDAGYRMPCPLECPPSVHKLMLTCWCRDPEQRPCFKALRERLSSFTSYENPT
T16 sequence (P05771 whole entry): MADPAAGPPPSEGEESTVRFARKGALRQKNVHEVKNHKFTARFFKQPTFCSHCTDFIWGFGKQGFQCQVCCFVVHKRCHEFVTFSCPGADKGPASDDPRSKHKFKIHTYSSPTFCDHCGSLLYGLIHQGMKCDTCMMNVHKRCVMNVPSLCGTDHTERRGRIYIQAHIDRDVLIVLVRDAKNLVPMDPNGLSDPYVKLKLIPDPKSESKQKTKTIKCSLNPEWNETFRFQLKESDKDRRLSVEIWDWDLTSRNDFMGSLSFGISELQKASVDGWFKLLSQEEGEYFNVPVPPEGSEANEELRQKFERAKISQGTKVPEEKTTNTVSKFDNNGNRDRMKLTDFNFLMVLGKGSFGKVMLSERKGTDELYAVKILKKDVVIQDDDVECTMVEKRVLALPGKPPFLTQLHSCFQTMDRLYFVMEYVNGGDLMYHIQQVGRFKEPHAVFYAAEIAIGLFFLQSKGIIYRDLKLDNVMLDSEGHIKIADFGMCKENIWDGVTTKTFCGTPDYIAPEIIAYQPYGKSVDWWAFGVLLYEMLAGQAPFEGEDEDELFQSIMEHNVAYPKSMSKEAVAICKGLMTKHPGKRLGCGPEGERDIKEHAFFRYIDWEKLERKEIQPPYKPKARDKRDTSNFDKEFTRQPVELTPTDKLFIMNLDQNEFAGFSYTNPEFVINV
T14 sequence (O43318 1-303 limits assumed): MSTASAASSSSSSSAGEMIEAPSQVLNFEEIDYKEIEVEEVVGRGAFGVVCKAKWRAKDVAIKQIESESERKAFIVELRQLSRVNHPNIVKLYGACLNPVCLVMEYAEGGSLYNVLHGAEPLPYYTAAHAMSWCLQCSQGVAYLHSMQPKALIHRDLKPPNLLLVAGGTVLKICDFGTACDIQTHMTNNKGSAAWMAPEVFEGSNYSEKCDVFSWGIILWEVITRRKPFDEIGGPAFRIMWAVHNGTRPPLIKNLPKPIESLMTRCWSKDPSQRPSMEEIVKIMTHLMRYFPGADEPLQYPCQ
Sequence of PKB 3 (P31751 whole entry): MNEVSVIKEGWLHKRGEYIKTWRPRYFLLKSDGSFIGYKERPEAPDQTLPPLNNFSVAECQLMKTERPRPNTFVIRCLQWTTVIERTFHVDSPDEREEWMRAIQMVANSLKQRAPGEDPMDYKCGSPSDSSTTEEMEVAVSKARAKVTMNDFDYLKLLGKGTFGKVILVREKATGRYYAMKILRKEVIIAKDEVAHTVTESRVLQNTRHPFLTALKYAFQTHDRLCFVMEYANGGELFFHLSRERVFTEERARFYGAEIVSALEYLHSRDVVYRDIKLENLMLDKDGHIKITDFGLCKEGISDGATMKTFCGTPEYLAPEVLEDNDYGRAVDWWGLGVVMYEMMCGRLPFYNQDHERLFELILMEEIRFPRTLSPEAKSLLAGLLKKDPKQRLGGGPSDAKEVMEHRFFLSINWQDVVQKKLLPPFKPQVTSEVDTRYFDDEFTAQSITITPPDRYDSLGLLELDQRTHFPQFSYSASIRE
T10 sequence (P08631 whole entry): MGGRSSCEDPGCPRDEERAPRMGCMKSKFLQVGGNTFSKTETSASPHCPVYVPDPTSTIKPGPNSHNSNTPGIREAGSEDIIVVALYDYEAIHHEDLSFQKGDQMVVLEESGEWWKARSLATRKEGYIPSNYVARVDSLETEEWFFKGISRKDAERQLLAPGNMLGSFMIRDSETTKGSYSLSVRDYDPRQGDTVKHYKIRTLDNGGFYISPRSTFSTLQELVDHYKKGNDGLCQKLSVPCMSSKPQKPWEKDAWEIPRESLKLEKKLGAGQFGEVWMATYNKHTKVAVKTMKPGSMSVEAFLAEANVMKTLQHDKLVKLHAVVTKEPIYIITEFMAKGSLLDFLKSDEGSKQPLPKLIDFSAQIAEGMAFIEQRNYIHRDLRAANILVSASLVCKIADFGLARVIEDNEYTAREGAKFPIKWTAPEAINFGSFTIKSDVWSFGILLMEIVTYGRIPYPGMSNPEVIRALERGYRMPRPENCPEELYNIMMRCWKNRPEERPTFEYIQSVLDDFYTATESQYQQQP
T6 sequence (P42684 whole entry): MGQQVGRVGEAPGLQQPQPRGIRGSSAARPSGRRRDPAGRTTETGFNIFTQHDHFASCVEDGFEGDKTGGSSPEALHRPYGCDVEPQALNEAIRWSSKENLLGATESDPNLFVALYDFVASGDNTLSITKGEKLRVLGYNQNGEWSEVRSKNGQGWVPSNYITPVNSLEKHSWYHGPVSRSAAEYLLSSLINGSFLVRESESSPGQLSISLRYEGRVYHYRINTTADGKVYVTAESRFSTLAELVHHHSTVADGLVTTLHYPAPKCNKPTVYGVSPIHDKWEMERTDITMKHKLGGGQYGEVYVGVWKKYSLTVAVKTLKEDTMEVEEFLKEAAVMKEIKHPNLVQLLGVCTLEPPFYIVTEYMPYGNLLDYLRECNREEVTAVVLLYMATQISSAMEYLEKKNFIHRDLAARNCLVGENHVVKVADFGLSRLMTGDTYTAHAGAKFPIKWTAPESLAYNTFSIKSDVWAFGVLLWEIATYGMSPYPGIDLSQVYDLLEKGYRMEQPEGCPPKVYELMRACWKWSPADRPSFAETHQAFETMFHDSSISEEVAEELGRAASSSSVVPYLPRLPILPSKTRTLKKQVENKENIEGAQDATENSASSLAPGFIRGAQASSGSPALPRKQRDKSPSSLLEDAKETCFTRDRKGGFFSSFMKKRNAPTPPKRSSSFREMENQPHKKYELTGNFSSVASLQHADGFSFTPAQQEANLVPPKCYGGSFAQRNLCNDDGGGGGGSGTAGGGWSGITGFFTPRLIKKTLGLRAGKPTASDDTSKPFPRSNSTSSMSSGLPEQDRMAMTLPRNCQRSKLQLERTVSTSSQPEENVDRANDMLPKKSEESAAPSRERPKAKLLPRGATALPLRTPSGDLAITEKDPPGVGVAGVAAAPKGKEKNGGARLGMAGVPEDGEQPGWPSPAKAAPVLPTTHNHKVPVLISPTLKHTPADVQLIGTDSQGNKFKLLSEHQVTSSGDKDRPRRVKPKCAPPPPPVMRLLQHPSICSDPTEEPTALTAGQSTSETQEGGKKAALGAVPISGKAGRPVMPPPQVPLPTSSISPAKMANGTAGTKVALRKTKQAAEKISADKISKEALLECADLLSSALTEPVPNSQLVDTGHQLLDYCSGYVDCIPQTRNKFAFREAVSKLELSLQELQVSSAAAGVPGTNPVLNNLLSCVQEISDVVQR

Nc1nc(N)c2nc(-c3cccc(O)c3)c(-c3cccc(O)c3)nc2n1 [Compound I, 6,7-bis-(3-hydroxyphenyl)-pteridine-2,4-diamine]
histamine-induced permeability / edema formation (histamine-induced edema): blocked; also recorded: reduced edema formation | reductions in infarct development vs. vehicle-treated controls (myocardial infarct; 0.1 mg/kg, delivery between 0 and 3 h post-reperfusion (FIG. 6b)): 58-67% | reduction in infarct size vs. vehicle controls (myocardial infarct; rats, 0.3 mg/kg IV bolus 60 min into reperfusion, 24 hr, N=8): 43% | infarct area as percentage of ischemic territory (myocardial infarct; rats, 0.3 mg/kg IV bolus 60 min into reperfusion, mean±SD (±9), vehicle 62%±7): 35% | improvement in fractional shortening (myocardial infarct; single 0.5 mg/kg bolus one hour post-reperfusion, 4 weeks): 24% | percent left ventricular long axis fractional shortening (myocardial infarct; single 0.5 mg/kg bolus one hour post-reperfusion, echocardiography 4 weeks, mean±SEM, vehicle 27.2±1.9): 33.6±2.0% | reduction of infarct size (myocardial infarct; single i.v. bolus 60 mm post-reperfusion): ≥ 40% | Percent Control, MAPKAP-K3 (MAPKAP-K3): 93% | Percent Control, PKCC, (PKCC,): 99% | Percent Control, PKCy (PKCy): 75% | Percent Control, ALK (ALK): 48% | Percent Control, Plk3 (Plk3): 97% | Percent Control, Arg (Arg): 43% | Percent Control, MKK7b (MKK7b): 79% | Percent Control, Axl (Axl): 76% | Percent Control, BRK (BRK): 79% | Percent Control, Hck (Hck): 67% | Percent Control, PAK2 (PAK2): 87% | Percent Control, SAPK2a (SAPK2a): 55% | Percent Control, CDK1 (CDK1): 54% | Percent Control, TAK1 (TAK1): 65% | remaining activity at 10 µM (PKB 3): 103% | Percent Control, PKCa (PKCa): 90% | Percent Control, PKCpi (PKCpi): 90% | Percent Control, PKCs (PKCs): 69%
